Data as given in patent US20100240604A1, “PROTECTED NUCLEOTIDE ANALOGS” (Alios BioPharma, Inc., priority 2009, published 2010).

Assays:
[1] = system: HCV RNA-replicating cell line, AVA5 (genotype 1b, subgenomic replicon); test: HCV replicon assay: intracellular HCV RNA levels by blot hybridization; type: cell-based, HCV genotype 1b; conditions: for EC50: 2-fold depression of HCV RNA relative to untreated cultures; for EC50 / EC90: normalized to β-actin RNA, daily treatment for three days, assessed at 72 hours; for EC90: 10-fold depression of HCV RNA relative to untreated cultures; for Antiviral activity (in words): results in Table 1
Procedure: (§1) Antiviral activity of the test compounds was assessed (Okuse, et al., Antivir. Res. (2005) 65:23) in the stably HCV RNA-replicating cell line, AVA5 (genotype 1b, subgenomic replicon, Blight, et al., Sci. (2000) 290:1972). Compounds were added to dividing cultures daily for three days. Cultures generally start the assay at 30-50% confluence and reach confluence during the last day of treatment. Intracellular HCV RNA levels and cytotoxicity were assessed 72 hours after treatment.
(§2) Quadruplicate cultures for HCV RNA levels and cytoxicity (on 96-well plates) were used. A total of 12 untreated control cultures, and triplicate cultures treated with α-interferon (concentrations of: 10 IU/mL, 3.3 IU/mL, 1.1 IU/mL and 0.37 IU/mL) and 2′C-Me-C (concentrations of: 30 μM, 10 μM, 3.3 μM and 1.1 μM) served as assay controls.
(§3) Intracellular HCV RNA levels were measured using a conventional blot hybridization method, in which HCV RNA levels are normalized to the levels of β-actin RNA in each individual culture (Okuse, et al., Antivir. Res. (2005) 65:23). Cytotoxicity was measured using an established neutral red dye uptake assay (Korba and Gerin, Antivir. Res. (1992) 19:55; Okuse, et al., Antivir. Res. (2005) 65:23). HCV RNA levels in the treated cultures are expressed as a percentage of the mean levels of RNA detected in untreated cultures. The absorbance of the internalized dye at […] (A510) was used for quantitative analysis.
(§4) Compounds were dissolved in 100% tissue culture grade DMSO (Sigma, Inc.) at 10 mM. Aliquots of test compounds sufficient for one daily treatment were made in individual tubes and all material was stored at −20° C. For the test, the compounds were suspended into culture medium at room temperature, and immediately added to the cell cultures. Compounds were analyzed separately in two groups with separate assay controls. […]
(§5) Values presented (±standard deviations [S.D.]) were calculated by linear regression analysis using data combined from all treated cultures. S.D. was calculated using the standard error of regression generated from the linear regression analyses (QuattroPro™). EC50 and EC90, drug concentrations at which a 2-fold, or a 10-fold depression of HCV RNA (relative to the average levels in untreated cultures), respectively, were observed; CC50, drug concentrations at which a 2-fold depression of neutral red dye uptake (relative to the average levels in untreated cultures) were observed.

AVA5 cell line = test: Cytotoxicity by neutral red dye uptake assay in the HCV replicon cultures; type: cell-based; conditions: 2-fold depression of neutral red dye uptake relative to untreated cultures; daily treatment for three days, assessed at 72 hours
Procedure: as §1, §2, §3, §4, §5

[2] = as above; type: cell-based; conditions: human; 2-fold depression of neutral red dye uptake relative to untreated cultures; daily treatment for three days, assessed at 72 hours
Procedure: as §1, §2, §3, §4, §5

| Compound | EC50 [1] [µM] | EC90 [1] [µM] | CC50 (AVA5 cell line) [µM] | Antiviral activity (in words) [1] | EC50 ([1]; Hepatitis C virus, Ava5) [µM] | EC90 ([1]; Hepatitis C virus, Ava5) [µM] | CC50 at 72 h [2] [µM] |
| --- | --- | --- | --- | --- | --- | --- | --- |
| C[C@@]1(O)[C@H](O)[C@@H](CO)O[C@H]1n1ccc(N)nc1=O [Compound 12a, 2′-β-methylcytidine, reference compound] | 1.6 | 5.9 | > 100 |  |  |  |  |
| CCOC(=O)C(COC(C)=O)(COP(=O)(N[C@@H](C)C(=O)OC)OC[C@H]1O[C@@H](n2cnc(C(N)=O)n2)[C@H](O)[C@@H]1O)C(=O)OCC (stereo partly drawn) [Compound 10] | 8.7 | 54 | > 100 | showed activity |  |  |  |
| COC(=O)[C@H](C)NP(=O)(OC[C@H]1O[C@@H](n2ccc(N)nc2=O)[C@H](OC)[C@@H]1O)Oc1ccccc1 (stereo partly drawn) [Compound 13, 2′-O-Methylcytidine 5′-[O-phenyl-N-(S-2-methoxy-1-methyl-2-oxoethyl)]phosphoramidate] | > 100 | > 100 | > 100 |  |  |  |  |
| COC(=O)[C@H](C)NP(=O)(OC[C@H]1O[C@@H](n2cnc(C(N)=O)n2)[C@@H](O)C1O)Oc1ccccc1 (stereo partly drawn) [Compound 9] |  |  |  | inactive | > 100 | > 100 | > 100 |
| CCOC(=O)C(COC(C)=O)(COP(=O)(OC[C@H]1O[C@@H](n2cnc(C(N)=O)n2)C(O)C1O)OCC(COC(C)=O)(C(=O)OCC)C(=O)OCC)C(=O)OCC (stereo partly drawn) [Compound 11, Ribavirin 5′-bis[3-acetyloxy-2,2-bis(ethoxycarbonyl)propyl]phosphate] |  |  |  | showed activity | 1.6 ± 0.2 | 4.4 ± 0.4 | 9.7 ± 0.2 |
